How the values were obtained:
YH-15 phytase [1] = assay: Substrate specificity of phytase; assay type: biochemical, Citrobacter braakii YH-15; settings: for Relative activity (%): substrate, phytate = 100
Text: (§1) Substrate specificity of phytase to various phosphate ester compounds was investigated.

YH-15 phytase [2] = assay: Enzyme activity of phytase according to metal ions and inhibitors; assay type: biochemical, Citrobacter braakii YH-15; settings: for inhibition of enzyme activity by metal ions: concentration of 10 mM; for enzyme activity after being left with denaturant: 37° C. for 2 hours, 8 M urea or 0.0024% SDS
Text: (§2) The present inventors investigated the effect of metal ions and inhibitors on the enzyme activity of phytase of the present invention.

[3] = target: T1, Citrobacter braakii YH-15 phytase, wild type, SEQ. ID. No 7 (N-terminal SEQ. ID. No 2) (Citrobacter braakii, UniProt Q2VY22); assay: Enzyme activity of YH-15 phytase according to metal ions and inhibitors; assay type: biochemical; settings: for effect of inhibitor on enzyme activity: concentration not given, reagents involved in disulfate bond
T1 construct: signal peptide removed
Method: (§3) The present inventors measured the activity of phytase produced by the 5 strains above (Table 1). Inorganic phosphorus quantitative method of Fiske, et al. was used for measuring the activity of phytase in culture solution and in cell precipitate. Particularly, 400 μl of substrate solution (2 mM sodium phytate in 0.1 M sodium acetate buffer, pH 5.0) was added to 100 μl of enzyme solution diluted by required dilution ratio, which was reacted at 37° C. for 30 minutes. Then, 500 μl of 5% TCA solution was added thereto, which was just left at 0° C. for 10 minutes to stop the reaction. As for a control (blank), TCA (trichloroacetic acid) solution was added to enzyme solution to inactivate the enzyme and then substrate solution was added thereto, which was left for a while. 4 ml of reagent A (1:1:1:2 ratio of 6 N H2SO4/2.5% ammonium molybdate/10% ascorbic acid/H2O) was added, followed by reaction at 37° C. for 30 minutes. Then, activities in enzyme solution and in a control were measured at 820 nm. 1 unit of the enzyme was determined to be the enzyme amount releasing 1 μmole of phosphate for 1 minute.
as §2

[4] = tested on: O=P(O)(O)O[C@H]1[C@H](OP(=O)(O)O)[C@@H](OP(=O)(O)O)[C@H](OP(=O)(O)O)[C@@H](OP(=O)(O)O)[C@H]1OP(=O)(O)O; assay: Substrate kinetics of purified YH-15 phytase (phosphate release from phytate); assay type: biochemical, Citrobacter braakii YH-15; settings: other: substrate phytate (sodium phytate); pH 5.0; 37.0 °C
Method: as §3
(§4) The enzyme activity of phytase included in each sample prepared from each purification stage of the above Example <3-2> was investigated (Table 3). Protein content was quantified by BCA protein quantification kit provided by Sigma, co. At that time, BSA (bovine serum albumin) was used as a standard protein. Specific activity of the purified phytase to phytate was 3,457 units/mg, recovery rate was 28%, and the final phytase was purified by 12,950 fold (FIG. 2).
as §1

[5] = target: T1, Citrobacter braakii YH-15 phytase, wild type, SEQ. ID. No 7 (N-terminal SEQ. ID. No 2); assay: as above; assay type: biochemical; settings: substrate phytate (sodium phytate)
Method: as §3, §4, §1

[6] = Specific activity and kinetics of purified phytase to phytate; assay type: biochemical, Citrobacter braakii YH-15
Method: as §3
The enzyme activity of phytase included in each sample prepared from each purification stage of the above Example <3-2> was investigated (Table 3). Protein content was quantified by BCA protein quantification kit provided by Sigma, co. […]

[7] = Enzyme activity of phytase according to temperature and pH; assay type: biochemical, Citrobacter braakii YH-15
Method: The present invention investigated an enzyme activity of phytase, according to temperature and pH, purified through chromatography using Mono S column.
When the enzyme was left at 55° C. for 10 minutes, 75% of the activity was still remained.
50% of the enzyme activity was still maintained at pH 2.5. […] But, as the protein was left under pH 3.0 for 4 hours, the enzyme activity was almost lost. From temperature and pH test with the protein, phytase of the present invention was believed to be very suitable for being used as a feed additive for monogastric animals.

proteases = assay: Effect of proteases on the enzyme activity of phytase; assay type: biochemical
Method: The present inventors investigated the effect of proteases on the enzyme activity of phytase. Particularly, phytase was left at 37° C. for 2 hours with pepsin and trypsin, resulting in no changes in the enzyme activity. But, as papain, elastase and pancreatin were added, 70˜85% of the enzyme activity remained.

O=C[C@H](O)[C@@H](O)[C@H](O)[C@H](O)COP(=O)(O)O [Glucose-6-phosphate]
Relative activity (%) (YH-15 phytase [1]): 0.33%

O=P(O)(O)O[C@H]1O[C@H](CO)[C@@H](O)[C@H](O)[C@H]1O [Glucose-1-phosphate]
Relative activity (%) (YH-15 phytase [1]): 0.42%

O=S(=O)([O-])[O-].[Cu+2] [CuSO4]
inhibition of enzyme activity by metal ions (YH-15 phytase [2]): strongly inhibited | Relative activity (%) (YH-15 phytase [2]; metal ion or inhibitor 6 mM): 38%

O=C[C@@H](O)[C@@H](O)[C@H](O)[C@H](O)COP(=O)(O)O [Mannose-6-phosphate]
Relative activity (%) (YH-15 phytase [1]): 0.01%

OCCS [2-mercaptoethanol]
effect of inhibitor on enzyme activity [3]: hardly affected

O=S(=O)([O-])[O-].[Zn+2] [ZnSO4]
inhibition of enzyme activity by metal ions (YH-15 phytase [2]): strongly inhibited | Relative activity (%) (YH-15 phytase [2]; metal ion or inhibitor 8 mM): 33%

O=P([O-])([O-])OP(=O)([O-])[O-].[Na+].[Na+].[Na+].[Na+] [Tetrasodium pyrophosphate]
Relative activity (%) (YH-15 phytase [1]): 5.95%

[Ca+2].[Cl-].[Cl-] [CaCl2]
Relative activity (%) (YH-15 phytase [2]; metal ion or inhibitor 6 mM): 87%

[Cl-].[Cl-].[Mg+2] [MgCl2]
Relative activity (%) (YH-15 phytase [2]; metal ion or inhibitor 6 mM): 71%

Citrobacter braakii YH-15 phytase, wild type, SEQ. ID. No 7 (N-terminal SEQ. ID. No 2) (Citrobacter braakii)
Km [4]: 460 µM | Vmax [4]: 6,027 U/mg

O=S(=O)([O-])[O-].[Ni+2] [NiSO4]
Relative activity (%) (YH-15 phytase [2]; metal ion or inhibitor 6 mM): 88%

[Cl][Mn][Cl] [MnCl2]
Relative activity (%) (YH-15 phytase [2]; metal ion or inhibitor 6 mM): 92%

O=P(O)(O)O[C@H]1[C@H](OP(=O)(O)O)[C@@H](OP(=O)(O)O)[C@H](OP(=O)(O)O)[C@@H](OP(=O)(O)O)[C@H]1OP(=O)(O)O [phytate, myo-inositol 1,2,3,4,5,6 hexakis dihydrogen phosphate]
Vmax [5]: 6,027 U/mg

O=C(O)CN(CCN(CC(=O)O)CC(=O)O)CC(=O)O [EDTA]
activity at 6000 µM ([3]; read-out: Relative activity (%)): 98%

Nc1ncnc2c1ncn2[C@@H]1O[C@H](COP(=O)(O)OP(=O)(O)O)[C@@H](O)[C@H]1O [ADP]
Relative activity (%) (YH-15 phytase [1]): 1.04%

[Cl][Cd][Cl] [CdCl2]
Relative activity (%) (YH-15 phytase [2]; metal ion or inhibitor 6 mM): 101%

OC(CS)C(O)CS (centres unmarked) [dithothreitol]
effect of inhibitor on enzyme activity [3]: hardly affected

[Cl][Fe]([Cl])[Cl] [FeCl3]
inhibition of enzyme activity by metal ions (YH-15 phytase [2]): strongly inhibited | Relative activity (%) (YH-15 phytase [2]; metal ion or inhibitor 6 mM): 19%

[Cl-].[K+] [KCl]
Relative activity (%) (YH-15 phytase [2]; metal ion or inhibitor 6 mM): 95%

O=[N+]([O-])c1ccc(OP(=O)(O)O)cc1 [p-nitrophenyl phosphate]
Relative activity (%) (YH-15 phytase [1]): 11.27%

O=C(CO)[C@@H](O)[C@H](O)[C@H](O)COP(=O)(O)O [Fructose-6-phosphate]
Relative activity (%) (YH-15 phytase [1]): 0.75%

[Cl-].[Na+] [NaCl]
inhibition of enzyme activity (YH-15 phytase [2]; concentration of 1 M): 50% | Relative activity (%) (YH-15 phytase [2]; metal ion or inhibitor 6 mM): 102% | Relative activity (%) (YH-15 phytase [2]; metal ion or inhibitor 1000 mM): 54%

O=P(O)(O)O[C@H]1[C@H](OP(=O)(O)O)[C@@H](OP(=O)(O)O)[C@H](OP(=O)(O)O)[C@@H](OP(=O)(O)O)[C@H]1OP(=O)(O)O [Phytate, myo-inositol 1,2,3,4,5,6 hexakis dihydrogen phosphate]
ability of phytase to decompose the substrate (YH-15 phytase [1]): strong ability to decompose | Relative activity (%) (YH-15 phytase [1]): 100%

NC(N)=O [urea]
enzyme activity after being left with denaturant (YH-15 phytase [2]): almost lost | enzyme activity after incubation with inhibitor ([3]; 8 M, 37° C., 2 hours): almost lost

Nc1ncnc2c1ncn2[C@@H]1O[C@H](COP(=O)(O)OP(=O)(O)OP(=O)(O)O)[C@@H](O)[C@H]1O [ATP]
Relative activity (%) (YH-15 phytase [1]): 1.86%

O=P(O)(O)OCC(O)CO (centres unmarked) [Glycerophosphate]
Relative activity (%) (YH-15 phytase [1]): 0.57%

CCCCCCCCCCCCOS(=O)(=O)[O-].[Na+] [SDS]
enzyme activity after being left with denaturant (YH-15 phytase [2]): almost lost

B1: YH-15 phytase: novel phytase enzyme of about 47 kDa produced by Citrobacter braakii YH-15, SEQ. ID. No 7 (protein)
chain: MSTFIIRLLIFSLLCGSFSIHAEEQNGMKLERVVIVSRHGVRAPTKFTPIMKDVTPDQWPQWDVPLGWLTPRGGELVSELGQYQRLWFTSKGLLNNQTCPSPGQVAVIADTDQRTRKTGEAFLAGLAPKCQIQVHYQKDEEKNDPLFNPVKMGKCSFNTLKVKNAILERAGGNIELYTQRYQSSFRTLENVLNFSQSETCKTTEKSTKCTLPEALPSEFKVTPDNVSLPGAWSLSSTLTEIFLLQEAQGMPQVAWGRITGEKEWRDLLSLHNAQFDLLQRTPEVARSRATPLLDMIDTALLTNGTTENRYGIKLPVSLLFIAGHDTNLANLSGALDLKWSLPGQPDNTPPGGELVFEKWKRTSDNTDWVQVSFVYQTLRDMRDIQPLSLEKPAGKVDLKLIACEEKNSQGMCSLKSFSRLIKEIRVPECAVTE
modifications: Citrobacter braakii YH-15; PEPTIDE (1)..(433) phytase
Specific activity of the purified phytase to phytate ([6]; final purified phytase): 3,457 units/mg | Specific activity ([6]; purification stage Mono SHR 5/5 (final)): 3,457 U/mg | pH of highest activity [7]: 4.0 | temperature of highest activity [7]: 50 °C | activity on storage at pH 3.0-4.5 ([7]; 37° C., pH 3.0-4.5, 7 days): very stably maintained | activity remained at pH 7.0 ([7]; 37° C., pH 7.0, 7 days): 50% | activity after holding at 50° C. ([7]; 50° C. for 1 hour): stably maintained | activity remained after heat ([7]; left at 55° C. for 10 minutes): 75% | enzyme activity maintained at pH 2.5 ([7]; pH 2.5): 50% | activity after being left under pH 3.0 ([7]; under pH 3.0 for 4 hours): almost lost | enzyme activity after pepsin (proteases; 37° C. for 2 hours with pepsin): no changes | enzyme activity after trypsin (proteases; 37° C. for 2 hours with trypsin): no changes | enzyme activity remained after elastase (proteases; elastase added): 70˜85% | enzyme activity remained after pancreatin (proteases; pancreatin added): 70˜85% | enzyme activity remained after papain (proteases; papain added): 70˜85%

— patent publication US7442398B2, “Phytase produced from Citrobacter braakii” (Republic of National Fisheries Research and Development …, priority 2003, dated 2008)
